Patent US20110319392A1, “Thiazole Sulfonamide And Oxazole Sulfonamide Kinase Inhibitors” (priority 2009, published 2011)
Where a name gives a salt, the structure may show the parent alone.

Experiments:
ErbB2 = molecular target: T1, ErbB2 (Homo sapiens, UniProt P04626); experiment: ErbB-2 substrate phosphorylation assay (HTRF); assay type: biochemical
T1 construct: made in house; host or cells: baculovirus expression system
Method in brief: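 Baculovirus-expressed EGFR (0.8 nM) or ErbB2 (10 nM) in enzyme mix, preincubated 1 h at 20 °C with compound (0.00027–47.6 μM final), then 90 min at 20 °C with substrate mix of 20 μM ATP, 0.8 uM biotinylated Peptide C, MnCl2, MOPS pH 7.5. Phosphotyrosine by HTRF; pIC50 reported.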

HN5 tumor cells = experiment: Cell growth inhibition assay (CellTiter-Glo), HN5; assay type: cell-based, Human; details: 3 days incubation
Procedure: (§1) Human breast tumor cells (BT474) were cultured in RPMI (Mediatech […]), containing 10% FBS (JRH Biosciences 12176) and 1% penicillin-streptomycin (Invitrogen 15140). Human head and neck tumor cells (HN5) were cultured in high glucose DMEM (Mediatech 50-013-PB) containing 10% FBS and 1% penicillin-streptomycin. Human colon tumor cells (Colo205) were cultured in RPMI (Mediatech 50-020-PB) containing 10% FBS and 1% penicillin-streptomycin. Human melanoma cancer cells (SK-MEL-28) were cultured in EMEM with nonessential amino acids (Mediatech 50-011-PB) containing 10% FBS, 1% sodium pyruvate (JT Baker 3354-04), and 1% penicillin-streptomycin. Human melanoma cancer cells (A375P F11s) were cultured in RPMI (Mediatech 50-020-PB) containing 10% FBS, 1% sodium pyruvate, and 1% penicillin-streptomycin. Human colon cancer cells (HT-29) were cultured in high glucose DMEM (Mediatech 50-013-PB) containing 10% FBS and 1% penicillin-streptomycin. Human melanoma cancer cells (SK-MEL-3) were cultured in McCoy's 5A (50-025-PB) containing 15% FBS, and 1% penicillin-streptomycin. All cell lines were maintained at 37° C. in a humidified 5% CO2, 95% air incubator. Cells were harvested using trypsin/EDTA (Invitrogen 25200), counted using a haemocytometer, and plated. For 96-well assays (using white full-area NUNC plates cat. #136102), cells were plated in 105 μL at the following densities (cells/well): HNS, 500; Colo 205, 500; SK-MEL-28, 500; A375P F11s, 500; HT-29, 500; SK-MEL-3, 500; and BT474, 3000. For 384-well assays (white full-area NUNC plates, cat. #781080), cells were plated in 48 μL at the following densities (cells/well): HNS, 500; Colo205, 500; SK-MEL-28, 500; A375P F11s, 500; HT-29, 500; SK-MEL-3, 500; and BT474, 2000.
(§2) The next day, compounds were diluted as follow: For 96-well assays, 13.5 μL of compound in DMSO were diluted using nine (9) serial 1:3 dilutions of 4.5 μL in 9 of DMSO. Medium (270 μL/well of RPMI with 10% FBS and 1% penicillin-streptomycin) was added to the plates. Aliquots (7 μL) were added to cells in the final assay giving a final DMSO concentration of 0.2%. For 384-well assays, 15 μL of compound in DMSO were diluted using nine (9) serial 1:3 dilutions of 5 μL in 10 μL of DMSO, followed by a further dilution of 5 μL of compound with 95 μL of medium, of which 2 μL were added to cells in the final assay giving a final DMSO concentration of 0.2%. Cells were incubated at 37° C., 5% CO2 for 3 days.
(§3) Total ATP was measured (as a surrogate estimate of cell number) using CellTiter-Glo® reagent (Promega G7571). Briefly, plates were removed from the incubator and allowed to equilibrate to room temperature for 30 minutes. CellTiter-Glo® (25 μL or 55 μL for 384-well or 96-well assays, respectively) reagent was added to each well and plates were shaken on an orbital plate shaker for 2 minutes. Plates were incubated without shaking for a further 30 minutes and read on an LJL Analyst GT reader in luminometer mode with an integration time of 0.5 seconds per well. Percent inhibition of cell growth was calculated relative to DMSO vehicle-treated control wells. Concentration of compound required to give 50% inhibition of vehicle-treated control cell growth (IC50) was interpolated using a 4-parameter fit for determining IC50 using the following equation: Y=A +((B−A)/(1+((C/X)̂D))) where […].

SK-MEL-28 tumor cells = experiment: Cell growth inhibition assay (CellTiter-Glo), SK-MEL-28; assay type: cell-based, Human; details: Homo sapiens, SK-MEL-28, 72 h; 3 days incubation
Method in brief: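 Readout was CellTiter-Glo luminescence (total ATP, surrogate for cell number) after 3-day exposure at 37° C, 5% CO2 to 1:3 serial compound dilutions in 0.2% final DMSO. Seeding was 500 cells/well; IC50 derived by 4-parameter fit relative to vehicle-treated wells.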

A375P F11s tumor cells = experiment: Cell growth inhibition assay (CellTiter-Glo), A375P F11s; assay type: cell-based, Human; details: for IC50: Homo sapiens
Procedure: as §1, §2, §3

T1 sequence (P04626 23-1255): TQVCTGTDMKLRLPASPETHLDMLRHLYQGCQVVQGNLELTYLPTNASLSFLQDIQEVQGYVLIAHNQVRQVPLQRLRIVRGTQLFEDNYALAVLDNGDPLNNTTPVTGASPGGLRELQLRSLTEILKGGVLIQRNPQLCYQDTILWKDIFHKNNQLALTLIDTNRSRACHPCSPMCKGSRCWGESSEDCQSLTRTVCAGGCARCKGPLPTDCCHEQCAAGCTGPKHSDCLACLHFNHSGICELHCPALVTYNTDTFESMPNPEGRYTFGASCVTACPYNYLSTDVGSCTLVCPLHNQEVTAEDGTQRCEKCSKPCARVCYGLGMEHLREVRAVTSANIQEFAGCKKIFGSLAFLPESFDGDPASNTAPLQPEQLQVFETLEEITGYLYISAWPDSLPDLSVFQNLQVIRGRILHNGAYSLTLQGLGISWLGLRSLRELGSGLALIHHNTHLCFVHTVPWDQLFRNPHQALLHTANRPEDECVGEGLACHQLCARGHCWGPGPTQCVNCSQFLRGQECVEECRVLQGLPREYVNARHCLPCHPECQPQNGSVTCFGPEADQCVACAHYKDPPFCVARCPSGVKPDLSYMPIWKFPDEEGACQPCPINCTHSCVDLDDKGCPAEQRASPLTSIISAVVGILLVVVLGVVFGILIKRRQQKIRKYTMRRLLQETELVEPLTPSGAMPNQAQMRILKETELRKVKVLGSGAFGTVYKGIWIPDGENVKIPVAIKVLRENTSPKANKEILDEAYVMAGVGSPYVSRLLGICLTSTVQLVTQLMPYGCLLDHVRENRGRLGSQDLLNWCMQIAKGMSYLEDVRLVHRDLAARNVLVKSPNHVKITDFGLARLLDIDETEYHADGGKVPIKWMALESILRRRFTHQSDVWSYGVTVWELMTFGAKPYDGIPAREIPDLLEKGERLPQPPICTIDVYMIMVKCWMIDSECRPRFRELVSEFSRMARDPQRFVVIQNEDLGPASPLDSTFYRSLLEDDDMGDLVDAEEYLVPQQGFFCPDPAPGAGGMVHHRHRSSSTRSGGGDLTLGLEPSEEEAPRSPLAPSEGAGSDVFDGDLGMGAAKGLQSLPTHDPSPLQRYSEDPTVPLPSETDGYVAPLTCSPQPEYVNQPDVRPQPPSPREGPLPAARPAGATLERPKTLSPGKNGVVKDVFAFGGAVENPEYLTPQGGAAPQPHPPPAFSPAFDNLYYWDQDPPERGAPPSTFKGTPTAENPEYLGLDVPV

SMILES	IC50 (ErbB2) [nM]	IC50 (HN5 tumor cells) [nM]	IC50 (SK-MEL-28 tumor cells) [nM]	IC50 (HN5 tumor cells; Homo sapiens, 72 h) [nM]	IC50 (A375P F11s tumor cells) [nM]	Activity in A375P F11s Tumor Cells (A375P F11s tumor cells)
CCNc1nc(-c2cccc(NS(=O)(=O)c3ccccc3)c2)c(-c2ccnc(Nc3ccc(OCCN4CCCC4)c(F)c3)n2)s1 [Example 1, N-(3-(2-(Ethylamino)-5-{2-[(3-fluoro-4-[[2-(1-pyrrolidinyl)ethyl]oxy}phenyl)amino]-4-pyrimidinyl}-1,3-thiazol-4-yl)phenyl]benzenesulfonamide]	100 to 1000	100 to 1000	100 to 1000	–	–	++ (activity of between 100 nM and 1 μM in A375P F11s tumor cells)
COCCN1CCN(c2ccc(Nc3nccc(-c4sc(C(C)C)nc4-c4cccc(NS(=O)(=O)c5ccccc5)c4)n3)cn2)CC1 [Example 6, N-[3-(2-(1-Methylethyl)-5-{2-[(6-{4-[2-(methyloxy)ethyl]-1-piperazinyl}-3-pyridinyl)amino]-4-pyrimidinyl}-1,3-thiazol-4-yl)phenyl]benzenesulfonamide]	100 to 1000	–	< 100	100 to 1000	< 100	–
CC(C)c1nc(-c2cccc(NS(=O)(=O)c3ccccc3)c2)c(-c2ccnc(Nc3ccc(N4CCOCC4)nc3)n2)s1 [Example 8, N-{3-[2-(1-Methylethyl)-5-(2-{[6-(4-morpholinyl)-3-pyridinyl]amino}-4-pyrimidinyl)-1,3-thiazol-4-yl]phenyl}benzenesulfonamide hydrochloride]	> 1000	–	< 100	> 1000	< 100	–
COc1ccc(Nc2nccc(-c3sc(C(C)C)nc3-c3cccc(NS(=O)(=O)c4ccccc4)c3)n2)cc1N1CCN(CCC#N)CC1 [Example 9, N-{3-[5-(2-{[3-[4-(2-Cyanoethyl)-1-piperazinyl]-4-(methyloxy)phenyl]amino}-4-pyrimidinyl)-2-(1-methylethyl)-1,3-thiazol-4-yl]phenyl}benzenesulfonamide]	< 100	–	< 100	100 to 1000	< 100	–
CC(=O)N1CCN(c2ccc(Nc3nccc(-c4sc(C(C)C)nc4-c4cccc(NS(=O)(=O)c5ccc(F)cc5)c4)n3)cn2)CC1 [Example 10, N-{3-[5-(2-{[6-(4-Acetyl-1-piperazinyl)-3-pyridinyl]amino}-4-pyrimidinyl)-2-(1-methylethyl)-1,3-thiazol-4-yl]phenyl}-4-fluorobenzenesulfonamide]	> 1000	–	< 100	> 1000	< 100	–
CC(=O)N1CCN(c2ccc(Nc3nccc(-c4sc(C(C)C)nc4-c4cccc(NS(=O)(=O)c5cccc(F)c5)c4)n3)cn2)CC1 [Example 11, N-{3-[5-(2-{[6-(4-Acetyl-1-piperazinyl)-3-pyridinyl]amino}-4-pyrimidinyl)-2-(1-methylethyl)-1,3-thiazol-4-yl]phenyl}-3-fluorobenzenesulfonamide]	100 to 1000	–	< 100	> 1000	< 100	–
CC(=O)N1CCN(c2ccc(Nc3nccc(-c4sc(C(C)C)nc4-c4cccc(NS(=O)(=O)c5ccccc5F)c4)n3)cn2)CC1 [Example 12, N-{3-[5-(2-{[6-(4-Acetyl-1-piperazinyl)-3-pyridinyl]amino}-4-pyrimidinyl)-2-(1-methylethyl)-1,3-thiazol-4-yl]phenyl}-2-fluorobenzenesulfonamide]	100 to 1000	–	< 100	100 to 1000	< 100	–
CC(C)c1nc(-c2cccc(NS(=O)(=O)c3c(F)cccc3F)c2)c(-c2ccnc(Nc3ccc(OC4CCN(CCS(C)(=O)=O)CC4)c(F)c3)n2)s1 [Example 13, 2,6-Difluoro-N-{3-[5-(2-{[3-fluoro-4-({1-[2-(methylsulfonyl)ethyl]-4-piperidinyl}oxy)phenyl]amino}-4-pyrimidinyl)-2-(1-methylethyl)-1,3-thiazol-4-yl]phenyl}benzenesulfonamide hydrochloride]	> 1000	–	< 100	100 to 1000	< 100	–
COc1ccc(Nc2nccc(-c3sc(C(C)C)nc3-c3cccc(NS(=O)(=O)c4c(F)cccc4F)c3)n2)cc1N(C)C [Example 18, N-{3-[5-(2-{[3-(Dimethylamino)-4-(methyloxy)phenyl]amino}-4-pyrimidinyl)-2-(1-methylethyl)-1,3-thiazol-4-yl]phenyl}-2,6-difluorobenzenesulfonamide trifluoroacetate]	100 to 1000	–	< 100	100 to 1000	< 100	–
COc1cc(N2CCN(CCS(C)(=O)=O)CC2)c(C)cc1Nc1nccc(-c2sc(C(C)C)nc2-c2cccc(NS(=O)(=O)c3c(F)cccc3F)c2)n1 [Example 19]	< 100	–	100 to 1000	> 1000	100 to 1000	–

Second part, led by results:

IC50 (ErbB2) [nM]	IC50 (HN5 tumor cells) [nM]	IC50 (SK-MEL-28 tumor cells) [nM]	IC50 (HN5 tumor cells; Homo sapiens, 72 h) [nM]	IC50 (A375P F11s tumor cells) [nM]	SMILES	Activity in A375P F11s Tumor Cells (A375P F11s tumor cells)
> 1000	–	< 100	> 1000	< 100	CC(C)c1nc(-c2cccc(NS(=O)(=O)c3c(F)cccc3F)c2)c(-c2ccnc(Nc3ccc(N4CCOCC4)c(C(=O)O)c3)n2)s1 [Example 14, 5-({4-[4-(3-{[(2,6-Difluorophenyl)sulfonyl]amino}phenyl)-2-(1-methylethyl)-1,3-thiazol-5-yl]-2-pyrimidinyl}amino)-2-(4-morpholinyl)benzoic acid]	–
100 to 1000	–	< 100	100 to 1000	< 100	CC(C)c1nc(-c2cccc(NS(=O)(=O)c3c(F)cccc3F)c2)c(-c2ccnc(Nc3ccc(N4CCN5CCOC[C@H]5C4)nc3)n2)s1 [Example 15]	–
100 to 1000	–	< 100	100 to 1000	< 100	CC(C)c1nc(-c2cccc(NS(=O)(=O)c3c(F)cccc3F)c2)c(-c2ccnc(Nc3ccc(N4CCN(CCS(C)(=O)=O)CC4)c(F)c3)n2)s1 [Example 16, 2,6-Difluoro-N-{3-[5-{2-[(3-fluoro-4-{4-[2-(methylsulfonyl)ethyl]-1-piperazinyl}phenyl)amino]-4-pyrimidinyl}-2-(1-methylethyl)-1,3-thiazol-4-yl]ohenyl}benzenesulfonamide hydrochloride]	–
> 1000	–	< 100	100 to 1000	< 100	CC(C)c1nc(-c2cccc(NS(=O)(=O)c3c(F)cccc3F)c2)c(-c2ccnc(Nc3ccc(N4CCOCC4)nc3)n2)s1 [Example 17, 2,6-Difluoro-N-{3-[2-(1-methylethyl)-5-(2-{[6-(4-morpholinyl)-3-pyridinyl]amino}-4-pyrimidinyl)-1,3-thiazol-4-yl]phenyl}benzenesulfonamide]	–
–	–	< 100	> 1000	< 100	CC(C)c1nc(-c2cncc(NS(=O)(=O)c3c(F)cccc3F)c2)c(-c2ccnc(Nc3ccc(N4CCOCC4)nc3)n2)s1 [Example 47]	–
